Measured values taken from publication PMC6543826 (Bioorganic chemistry, 2018).
Read-outs that look alike come from different tables or passages of the source.

Legend:
NCI-H226 = assay: cells; type: cell-based; settings: NCI-H226, 10^−5 M, 48 h
RPMI-8226 = assay: cells; type: cell-based; settings: RPMI-8226, 10^−5 M, 48 h
MALME-3M = assay: cells; type: cell-based; settings: MALME-3M, 10^−5 M, 48 h
DU-145 = assay: cells; type: cell-based; settings: DU-145, 10^−5 M, 48 h
SW-620 = assay: cells; type: cell-based; settings: SW-620, 10^−5 M, 48 h
A549/ATCC = assay: cells; type: cell-based; settings: A549/ATCC, 10^−5 M, 48 h
MDA-MB-468 = assay: cells; type: cell-based; settings: MDA-MB-468, 10^−5 M, 48 h
HCC-2998 = assay: cells; type: cell-based; settings: HCC-2998, 10^−5 M, 48 h
CCRF-CEM = assay: cells; type: cell-based; settings: 10^−5 M, 48 h
NCI-H460 = assay: cells; type: cell-based; settings: NCI-H460, 10^−5 M, 48 h
OVCAR-3 = assay: cells; type: cell-based; settings: OVCAR-3, 10^−5 M, 48 h
PC-3 = assay: cells; type: cell-based; settings: PC-3, 10^−5 M, 48 h
LOX IMVI = assay: cells; type: cell-based; settings: 10^−5 M, 48 h
HCT-15 = assay: cells; type: cell-based; settings: HCT-15, 10^−5 M, 48 h
SK-MEL-2 = assay: cells; type: cell-based; settings: SK-MEL-2, 10^−5 M, 48 h
UO-31 = assay: cells; type: cell-based; settings: UO-31, 10^−5 M, 48 h
SR = assay: cells; type: cell-based; settings: 10^−5 M, 48 h
HOP-62 = assay: cells; type: cell-based; settings: HOP-62, 10^−5 M, 48 h
SNB-75 = assay: cells; type: cell-based; settings: SNB-75, 10^−5 M, 48 h
SF-268 = assay: cells; type: cell-based; settings: SF-268, 10^−5 M, 48 h
SN12C = assay: cells; type: cell-based; settings: 10^−5 M, 48 h
OVCAR-5 = assay: cells; type: cell-based; settings: OVCAR-5, 10^−5 M, 48 h
IGROV1 = assay: cells; type: cell-based; settings: IGROV1, 10^−5 M, 48 h
KM 12 = assay: cells; type: cell-based; settings: KM 12, 10^−5 M, 48 h
p38MAPKα = p38MAPKα (Homo sapiens, UniProt Q16539); assay: in vitro kinase assay, GST-ATF2; type: biochemical
Sequence of p38MAPKα (Q16539 whole entry): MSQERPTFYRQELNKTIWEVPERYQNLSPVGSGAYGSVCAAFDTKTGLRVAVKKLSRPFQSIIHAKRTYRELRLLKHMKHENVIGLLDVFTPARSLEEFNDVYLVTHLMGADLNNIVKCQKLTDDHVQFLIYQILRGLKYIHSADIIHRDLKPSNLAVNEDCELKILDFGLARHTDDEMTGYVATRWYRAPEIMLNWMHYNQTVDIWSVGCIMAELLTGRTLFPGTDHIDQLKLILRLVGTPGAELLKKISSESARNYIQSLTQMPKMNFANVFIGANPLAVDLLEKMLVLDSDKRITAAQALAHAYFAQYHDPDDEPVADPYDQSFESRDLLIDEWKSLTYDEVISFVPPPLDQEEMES

SK-MEL-5 = assay: cells; type: cell-based; settings: SK-MEL-5, 10^−5 M, 48 h
HOP-92 = assay: cells; type: cell-based; settings: HOP-92, 10^−5 M, 48 h
K-562 = assay: cells; type: cell-based; settings: K-562, 10^−5 M, 48 h
NCI-H23 = assay: cells; type: cell-based; settings: NCI-H23, 10^−5 M, 48 h
OVCAR-4 = assay: cells; type: cell-based; settings: OVCAR-4, 10^−5 M, 48 h
NCI-H322M = assay: cells; type: cell-based; settings: 10^−5 M, 48 h
SK-OV-3 = assay: cells; type: cell-based; settings: SK-OV-3, 10^−5 M, 48 h
MOLT-4 = assay: cells; type: cell-based; settings: MOLT-4, 10^−5 M, 48 h
SNB-19 = assay: cells; type: cell-based; settings: SNB-19, 10^−5 M, 48 h
HT29 = assay: cells; type: cell-based; settings: HT29, 10^−5 M, 48 h
JNK2 = JNK2 (Homo sapiens, UniProt P45984); assay: in vitro kinase assay, GST-c-Jun; type: biochemical
Sequence of JNK2 (P45984 whole entry): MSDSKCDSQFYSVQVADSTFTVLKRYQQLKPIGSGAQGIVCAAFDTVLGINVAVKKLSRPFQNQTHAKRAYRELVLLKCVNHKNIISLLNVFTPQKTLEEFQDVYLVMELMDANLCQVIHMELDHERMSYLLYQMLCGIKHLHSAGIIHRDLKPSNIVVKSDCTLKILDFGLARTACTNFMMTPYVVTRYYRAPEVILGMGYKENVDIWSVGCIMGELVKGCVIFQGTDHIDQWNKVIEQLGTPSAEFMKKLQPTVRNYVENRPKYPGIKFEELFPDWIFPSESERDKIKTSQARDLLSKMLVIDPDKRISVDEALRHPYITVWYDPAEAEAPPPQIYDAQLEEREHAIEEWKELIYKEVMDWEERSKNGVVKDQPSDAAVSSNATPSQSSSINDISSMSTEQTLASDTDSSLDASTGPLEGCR

SK-MEL-28 = assay: cells; type: cell-based; settings: SK-MEL-28, 10^−5 M, 48 h
[1] = system: NCI-60 panel of tumor cell lines; settings: for Average G%: average over tested NCI-60 cell lines, 10^−5 M (10 μM), 48 h

In the case of Cn1c(=O)c2c(=O)c3c4c(oc3oc2c2ccccc21)C(=O)c1ccccc1C4=O [5a, 5-Methyl-5H-naphthalen[2″,3″:4′,5′]furo[3′,2′:4′,5,6]pyrano [3,2-c]quinoline-6,7,8,13-tetraone], the “Growth percent (G%)” value (NCI-H226) is reported as 88.55%, the “Growth percent (G%)” value (RPMI-8226) is reported as 100.23% and the “Growth percent (G%)” value (MALME-3M) is reported as 113.29%. For the same compound, the “Growth percent (G%)” value (DU-145) was 81.38%, the “Growth percent (G%)” value (SW-620) was 103.1% and the “Growth percent (G%)” value (A549/ATCC) was 85.17%. The “Growth percent (G%)” value (MDA-MB-468) was 64.82%, the “Growth percent (G%)” value (HCC-2998) was 103.64% and the “Growth percent (G%)” value (CCRF-CEM) was 92.93%. The “Growth percent (G%)” value (NCI-H460) was 108.09%, the “Growth percent (G%)” value (OVCAR-3) was 98.93% and the “Growth percent (G%)” value (PC-3) was 79.23%. For the same compound, the “Growth percent (G%)” value (LOX IMVI) was 95.89%, the “Growth percent (G%)” value (HCT-15) was 94.13% and the “Growth percent (G%)” value (SK-MEL-2) was 86.85%. The “Growth percent (G%)” value (UO-31) was 137.02%, the “Growth percent (G%)” value (SR) was 92.01% and the “Growth percent (G%)” value (HOP-62) was 80.81%. For the same compound, the “Growth percent (G%)” value (SNB-75) was 101.36%, the “Growth percent (G%)” value (SF-268) was 101.09% and the “Growth percent (G%)” value (SN12C) was 125.68%. The “Growth percent (G%)” value (OVCAR-5) was 102.02%, the “Growth percent (G%)” value (IGROV1) was 65.92% and the “Growth percent (G%)” value (KM 12) was 95.63%. The “ability to inhibit p38MAPKα (in words)” value (p38MAPKα) was “did not show any ability to inhibit”, the IC50 (p38MAPKα; read-out: p38MAPKα IC50, 10 μM GST-ATF2) was over 200 µM and the “Growth percent (G%)” value (SK-MEL-5) was 97.56%. The “Growth percent (G%)” value (HOP-92) was 99.17%, the “Growth percent (G%)” value (K-562) was 89.61% and the “Growth percent (G%)” value (NCI-H23) was 86.15%. For the same compound, the “Growth percent (G%)” value (OVCAR-4) was 97.38%, the “Growth percent (G%)” value (NCI-H322M) was 91.04% and the “Growth percent (G%)” value (SK-OV-3) was 95.03%. For the same compound, the “Growth percent (G%)” value (MOLT-4) was 87.37%, the “Growth percent (G%)” value (SNB-19) was 110.38% and the “Growth percent (G%)” value (HT29) was 96.96%. The “ability to inhibit JNK2 (in words)” value (JNK2) was “did not show any ability to inhibit”, the IC50 (JNK2; read-out: JNK2 IC50, 2 μM GST-c-Jun (1–221)) was over 200 µM and the “Growth percent (G%)” value (SK-MEL-28) was 107.21%. For the same compound, the “Average G%” value [1] was 95.45%.
In the case of O=C1C(Cl)=C(c2c(O)c3c(=O)n(-c4ccccc4)c4ccccc4c3oc2=O)C(=O)c2ccccc21 [compound 6, 3-(3-Chloro-1,4-dioxo-1,4-dihydronaphthalen-2-yl)-4-hydroxy-6-phenyl-2H-pyrano[3,2-c]quinoline-2,5(6H)-dione], the “Growth percent (G%)” value (NCI-H226) is reported as 86.30%, the “Growth percent (G%)” value (RPMI-8226) is reported as 19.65% and the “Growth percent (G%)” value (MALME-3M) is reported as 42.00%. The “Growth percent (G%)” value (DU-145) was 34.21%, the “Growth percent (G%)” value (SW-620) was 18.61% and the “Growth percent (G%)” value (A549/ATCC) was 37.73%. The “Growth percent (G%)” value (MDA-MB-468) was −27.29%, the “Growth percent (G%)” value (HCC-2998) was 42.85% and the “Growth percent (G%)” value (CCRF-CEM) was 17.76%. The “Growth percent (G%)” value (NCI-H460) was 33.57%, the “Growth percent (G%)” value (OVCAR-3) was 2.15% and the “Growth percent (G%)” value (PC-3) was 49.16%. For the same compound, the “Growth percent (G%)” value (LOX IMVI) was 42.99%, the “Growth percent (G%)” value (HCT-15) was 66.56% and the “Growth percent (G%)” value (SK-MEL-2) was 23.06%. The “Growth percent (G%)” value (UO-31) was 64.18%, the “Growth percent (G%)” value (SR) was 11.44% and the “Growth percent (G%)” value (HOP-62) was 36.07%. For the same compound, the “Growth percent (G%)” value (SNB-75) was 31.77%, the “Growth percent (G%)” value (SF-268) was 34.32% and the “Growth percent (G%)” value (SN12C) was −14.11%. For the same compound, the “Growth percent (G%)” value (OVCAR-5) was 88.70%, the “Growth percent (G%)” value (IGROV1) was 71.85% and the “Growth percent (G%)” value (KM 12) was 18.86%. For the same compound, the “ability to inhibit p38MAPKα (in words)” value (p38MAPKα) was “little tendency to inhibit”, the IC50 (p38MAPKα; p38MAPKα IC50, 10 μM GST-ATF2) was 3.1 ± 0.5 µM and the “Growth percent (G%)” value (SK-MEL-5) was 17.66%. For the same compound, the “Growth percent (G%)” value (HOP-92) was 80.01%, the “Growth percent (G%)” value (K-562) was 26.84% and the “Growth percent (G%)” value (NCI-H23) was 38.22%. For the same compound, the “Growth percent (G%)” value (OVCAR-4) was 18.80%, the “Growth percent (G%)” value (NCI-H322M) was 63.53% and the “Growth percent (G%)” value (SK-OV-3) was 67.28%. The “Growth percent (G%)” value (MOLT-4) was 16.13%, the “Growth percent (G%)” value (SNB-19) was 27.87% and the “Growth percent (G%)” value (HT29) was 84.18%. For the same compound, the IC50 (JNK2) was 4.2 ± 0.9 µM, the “ability to inhibit JNK2 (in words)” value (JNK2) was “little tendency to inhibit” and the “Growth percent (G%)” value (SK-MEL-28) was 39.37%. The “NCI Cytotoxicity Screening Average G%” value ([1]; Table 4, 10 μM one-dose screen) was 35% and the “Average G%” value [1] was 35.49%.
